Here are results for 2 compounds from patent publication US11866451B2, “Salts and crystalline forms of a PD-1/PD-L1 inhibitor” (Incyte Corporation, priority 2019, dated 2024).

SMILES strings stand for the structures. Some results are limits rather than exact numbers.

Holding throughout (type): physicochemical
A short description of data set [1]: Competitive slurry experiments, stability relationship of polymorphs in 10% water/acetone. Here is the method: To evaluate the transformation of Compound 1 Di-Hydrochloric Acid Salt solid forms, competitive slurry experiments at 25±1° C. and 60±1° C. in the solvent of 10% water/acetone were performed with a mixture of eight polymorphs (Form I, and Form III through Form IX) as described in Table 23 and Table 24. [table] [table]

Data set [2] is described as follows: Solubility measurement in various solvents at 25° C. (Procedure 1). To be noted: thermodynamic from solid. Here is the method:
(§1) The solubility of Compound 1 Di-Hydrochloric Acid Salt Form I was measured according to Procedure 1 for solubility in 25° C. (Table 5) and Procedure 2 for 50° C. [table] [table]

The nature of data set [3]: Solubility measurement in various solvents at 50° C. (Procedure 2). As to the method:
as §1

Where [4] appears, read: 2% water in acetone, organic solvent or mixture.
[5] abbreviates: 2% water in acetonitrile, organic solvent or mixture.
Where [6] appears, read: 2-methoxyethanol, organic solvent or mixture.
Where [7] appears, read: 5% water in acetone, organic solvent or mixture.
The mark [8] stands for this setting: 5% water in acetonitrile, organic solvent or mixture.
[9] abbreviates: 10% water in acetone, organic solvent or mixture.
[10] abbreviates: 10% water in acetonitrile, organic solvent or mixture.
The mark [11] stands for this setting: DMF, organic solvent or mixture.
[12] abbreviates: DMSO, organic solvent or mixture.
The mark [13] stands for this setting: EtOH, organic solvent or mixture.
Setting [14] is: IPA, organic solvent or mixture.
[15] abbreviates: MeCN, organic solvent or mixture.
The mark [16] stands for this setting: acetone, organic solvent or mixture.
The mark [17] stands for this setting: chloroform, organic solvent or mixture.

Consider `Cl.Cl.Cn1c(C(=O)Nc2cccc(-c3cccc(NC(=O)c4nc5c(n4C)CCN(CCC46CCC(C(=O)O)(CC4)C6)C5)c3Cl)c2Cl)nc2c1CCN(CCC13CCC(C(=O)O)(CC1)C3)C2` [Form III, 4,4′-(((((2,2′-dichloro-[1,1′-biphenyl]-3,3′-diyl)bis(azanediyl))bis(carbonyl))bis(1-methyl-1,4,6,7-tetrahydro-5H-imidazo[4,5-c]pyridine-2,5-diyl))bis(ethane-2,1-diyl))bis(bicyclo[2.2.1]heptane-1-carboxylic acid) di-hydrochloric acid salt], for which the “Polymorph transformation in competitive slurry (XRPD)” value in data set [1] (mixture of polymorphs stirred in 10% water/acetone at 25±° C. for 20 hours and at 60±° C. for 2 h) is reported as “converted to Form I”.
By solubility is commonly meant the dissolved amount per volume that the medium holds. Consider `Cl.Cl.Cn1c(C(=O)Nc2cccc(-c3cccc(NC(=O)c4nc5c(n4C)CCN(CCC46CCC(C(=O)O)(CC4)C6)C5)c3Cl)c2Cl)nc2c1CCN(CCC13CCC(C(=O)O)(CC1)C3)C2` [4,4′-(((((2,2′-dichloro-[1,1′-biphenyl]-3,3′-diyl)bis(azanediyl))bis(carbonyl))bis(1-methyl-1,4,6,7-tetrahydro-5H-imidazo[4,5-c]pyridine-2,5-diyl))bis(ethane-2,1-diyl))bis(bicyclo[2.2.1]heptane-1-carboxylic acid) di-hydrochloric acid salt], for which the “Relative stability of polymorphic forms” value in data set [1] (10% water/acetone at 25 and 60° C., competitive slurry) is given as “most stable polymorphic form”. Further, the solubility was 50 µg/mL in data set [2] (setting [4]); 10 µg/mL in data set [2] (setting [5]); 16900 µg/mL in data set [2] (setting [6]); 320 µg/mL in data set [2] (setting [7]); 1040 µg/mL in data set [2] (setting [8]); 2300 µg/mL in data set [2] (setting [9]). The solubility in data set [2] (setting [10]) was 3640 µg/mL; in data set [2] (setting [11]), 2980 µg/mL; in data set [2] (setting [12]) it was above 50000 µg/mL; in data set [2] (setting [13]), 390 µg/mL; in data set [2] (setting [14]), 650 µg/mL; in data set [2] (IPAc, organic solvent or mixture), 10 µg/mL. Besides, the solubility is 20 µg/mL in data set [2] (setting [15]); 50 µg/mL in data set [2] (THF, organic solvent or mixture); 10 µg/mL in data set [2] (setting [16]); above 50000 µg/mL in data set [2] (setting [17]); 710 µg/mL in data set [2] (organic solvent or mixture, 1-Propanol, solid phase Form V); 18800 µg/mL in data set [2] (organic solvent or mixture, Methanol, solid phase Form III). Besides, the solubility in data set [2] (organic solvent or mixture, n-BuOH, solid phase Form IV) is 460 µg/mL; in data set [2] (Water, solid phase Form VI), 12900 µg/mL; in data set [3] (1,4-dioxane, organic solvent or mixture) it was 10 µg/mL; in data set [3] (1-propanol, organic solvent or mixture), 1120 µg/mL; in data set [3] (setting [4]), 110 µg/mL; in data set [3] (setting [5]), 10 µg/mL. For the same compound, the solubility stood at 28300 µg/mL in data set [3] (setting [6]); 560 µg/mL in data set [3] (setting [7]); 1210 µg/mL in data set [3] (setting [8]); 5710 µg/mL in data set [3] (setting [9]); 6610 µg/mL in data set [3] (setting [10]); 5480 µg/mL in data set [3] (setting [11]). The solubility in data set [3] (setting [12]) is above 50000 µg/mL; in data set [3] (setting [13]) it was 1100 µg/mL; in data set [3] (setting [14]), 980 µg/mL; in data set [3] (MEK, organic solvent or mixture) it was 150 µg/mL; in data set [3] (MIBK, organic solvent or mixture), 10 µg/mL; in data set [3] (setting [15]), 10 µg/mL. Moreover, the solubility in data set [3] (THF, organic solvent or mixture, thermodynamic from solid) is 40 µg/mL; in data set [3] (setting [16]), 10 µg/mL; in data set [3] (setting [17]), above 50000 µg/mL; in data set [3] (methanol, organic solvent or mixture, thermodynamic from solid) it was 22100 µg/mL; in data set [3] (organic solvent or mixture, thermodynamic from solid, n-BuOH, solid phase Form IV), 420 µg/mL; in data set [3] (thermodynamic from solid, Water, solid phase Form VI) it was 14800 µg/mL.
